Experimental data reported in patent publication US7094770B2, “3′-or 2′-hydroxymethyl substituted nucleoside derivatives for treatment of hepatitis virus infections” (Pharmasset, Ltd., priority 2000, dated 2006).
Like-named read-outs stand apart in the source and are kept apart here.

Columns and labels:
HBV [1] = assay: Cell culture assay for anti-HBV activity (2.2.15 cells, HBV DNA in medium by Southern blot); type: cell-based, Hepatitis B virus; conditions: for EC50: read-out: Anti-HBV EC50; for Antiviral activity (in words): virus not named
From the text: We follow the protocol described by Korba and Gerin(Antiviral Res., 1992, 19:55) and Pai et al. (Antimicrobial Agents Chemother., 1996, 40:380) which is used widely in the field. The HepG 2 2.2.15 cells contain a stably integrated HBV genome, the transcript from which serves as a template for viral replication. The cells produce virions which are elaborated into the medium. The production of the virion DNA is monitored by analysis of medium by Southern blotting. Drugs which inhibit viral replication reduce the levels of virion DNA in the medium, relative to controls.
Confluent cells in 24 well tissue culture dishes are treated with test compounds starting at 1 nM and extending logarithmically to 10 μM (1 nM, 3.2, 10 nM, 32, 100 nM, 1 μM, 10 μM […]). Medium is changed […] every 3 days and DNA extracted from the 3, 6, and […] day samples. The virions are concentrated by polyethylene glycol precipitation (equal volume addition of PEG 8000). After cooling on ice the samples are spun and the pellets treated with SDS and Proteinase K followed by Phenol:Chloroform extraction and ethanol precipitation of the DNA. The DNA is analyzed for HBV sequences by Southern hybridization. The probe used for the analysis is a ^32P labeled Eco RI fragment from the HBV clone described by Korba et al. 3TC is used as a positive control compound with known activity against HBV.
System: The most widely used system for the study of anti-HBV agents is the hepatoma cell culture system with the HBV genome. These cells are designated as the 2.2.15 cells, AD38 cells and AD79 cells. The 2.2.15 cells were generated by the transfection of the human hepatoma cells—HepG2 with HBV DNA. (Sells, et al., Proc. Natl. Acad. Sci. USA 84:1005–1009, 1987) HBV viral replication takes place in these cells. The HBV replication can be monitored intracellularly as well as extracellularly in these cells.
Assay for Anti-HBV agents: 2.215 cells are grown in multi-well dishes in RPMI medium supplemented with 4% fetal bovine serum. After 3 to 4 days of growing the cells, they are treated with varying concentrations of the test compound(s). The test compounds are dissolved in DMSO or sterile water. Cultures without the addition of the test compounds serve as controls. The addition of the test compound(s) is repeated at 3-day intervals. The medium is changed and replaced with appropriate concentration of the test compound. At the end of the 9-day treatment period, the culture medium is harvested and processed for viral DNA. The viral DNA thus obtained is analyzed by Southern blot analysis. After the Southern transfer, the blot is subjected to hybridization to an HBV specific probe to detect HBV DNA. The hybriodization is carried out overnight. After the hybridization, free probe is removed by washing of the blots. The specific hybridization is visualized by autoradiography. Inhibition produced by the test compound is calculated with reference to the levels of HBV DNA in the control samples.

HIV-1 = assay: Anti-HIV evaluation in human PBM cells; type: cell-based; conditions: for EC50: HIV-1
From the text: (§1) Human PBM cells from healthy donors, seronegative for HIV-1 and HBV, are isolated by a single-step Ficoll-Hypaque discontinuous gradient centrifugation and propagated as described previously (Schinazi et al., Antimicrobial Agents Chemother., 1990, 34:1061; 1992, 36:2423; 1993, 37:875). Compounds are screened for activity against HIV-1 and cytotoxicity by a protocol reported previously reported by Schinazi, et al. The prototype strain of HIV-1LAI obtained from the Centers for Disease Control and Prevention, Atlanta, Ga., is used as the standard virus for the studies in human PBM cells.

PBM cells = assay: Cytotoxicity in PBM cells; type: cell-based, human
Experimental: (§2) We also perform toxicity assays by measuring the inhibition of uptake of […] dye by treated cells. These assays are done in 96 well plates. After the standard 10 day treatment regimen medium is removed and PBS containing MTS dye added to each well. After a 2 hour incubation the absorbance of the metabolized product is measured at 490 nm.
as §1

Vero cells = assay: Cytotoxicity in Vero cells; type: cell-based
Experimental: as §2

[2] = Cytotoxicity in PBM cells; type: cell-based, human; conditions: human
Experimental: as §2, §1

[3] = Cytotoxicity in CEM cells; type: cell-based; conditions: human
Experimental: as §2

[4] = Cytotoxicity in Vero cells; type: cell-based; conditions: African green monkey
Experimental: as §2

[5] = Cytotoxicity in HepG2 cells; type: cell-based; conditions: human
Experimental: as §2

HIV = conditions: literature; cited from earlier work
[6] = biological target: reverse transcriptase of human immunodeficiency virus (Human immunodeficiency virus type 1 group M subtype B, UniProt P03366); conditions: tested as the 5′-triphosphate; cited from earlier work
HBV [7] = conditions: background statement; cited from earlier work
[8] = Human immunodeficiency virus 1, PBMC

SMILES	EC50 (HBV [1]; Hepatitis B virus) [µM]	EC50 (HIV-1; [8]) [µM]	IC50 [2] [µM]	IC50 at 10 day [3] [µM]	IC50 at 10 day [4] [µM]	also measured
Cc1cn(C2CC(CO)C(CO)O2)c(=O)[nH]c1=O (stereo not shown) [Compound 4 (Series 1)]	–	–	–	–	–	EC50 (HBV [1]): > 10 µM; EC50 (HIV-1): 87.7 µM; IC50 (PBM cells): > 100 µM; IC50 (Vero cells): > 100 µM
Cc1cn(C2CC(CO)N(C)O2)c(=O)[nH]c1=O (stereo not shown) [Compound 40 (Series 2)]	–	–	–	–	–	EC50 (HBV [1]): > 10 µM; EC50 (HIV-1): > 100 µM; IC50 (PBM cells): > 100 µM; IC50 (Vero cells): > 100 µM
CN(O)C1C(CO)OC(n2ccc(N)nc2=O)C1F (stereo not shown) [Compound 59 (Series 2)]	≤ 10	0.49	> 100	65.3	> 100	Inhibition of HBV replication (in words) (HBV [1]): potent inhibitors; Inhibition of HIV replication (in words) (HIV-1): potent inhibitors; IC50 at 10 day [5]: > 100 µM
CN(O)C1C(CO)OC(n2ccc(N)nc2=O)[C@H]1F (stereo partly shown) [Compound 58 (Series 2)]	0.65	0.09	7.4	40.2	~106	Inhibition of HBV replication (in words) (HBV [1]): potent inhibitors; Inhibition of HIV replication (in words) (HIV-1): potent inhibitors; IC50 at 10 day [5]: > 100 µM
Nc1ncnc2c1ncn2C1OC(CO)C(CO)C1F (stereo not shown) [Compound 23 (Series 2)]	1.04	95.4	> 100	> 100	> 100	IC50 at 10 day [5]: > 100 µM
Nc1ncnc2c1ncn2[C@H]1C[C@H](CO)[C@@H](CO)O1 [2′,3′-dideoxy-3′-hydroxymethyl-adenosine]	–	–	–	–	–	Activity against HIV (in words) (HIV): good activity
Nc1ccn(C2OC(CO)C(CO)C2F)c(=O)n1 (stereo not shown) [Compound 7 (Series 2)]	0.04	2.6	48.8	5.1	56	Inhibition of HBV replication (in words) (HBV [1]): potent inhibitors; Inhibition of HIV replication (in words) (HIV-1): potent inhibitors; IC50 at 10 day [5]: > 100 µM
Cc1cn(C2OC(CO)C(CO)C2F)c(=O)nc1N (stereo not shown) [Compound 11 (Series 2)]	–	–	–	> 100	–	EC50 (HBV [1]): < 10 µM; Antiviral activity (in words) (HBV [1]): moderate activities; EC50 (HIV-1): 112 µM; IC50 (PBM cells): > 100 µM; IC50 (Vero cells): > 100 µM
CC1C(CO)OC(n2ccc(N)nc2=O)C1F (stereo not shown) [Compound 20 (Series 2)]	> 10	> 100	> 100	> 100	> 100	Inhibition of HBV replication (in words) (HBV [1]): potent inhibitors; Inhibition of HIV replication (in words) (HIV-1): potent inhibitors
Cc1cn(C2OC(CO)C(N(C)O)[C@@H]2F)c(=O)[nH]c1=O (stereo partly shown) [Compound 55 (Series 2)]	> 10	68	> 100	> 100	> 100	–
CN(O)C1C(CO)OC(n2cc(F)c(=O)[nH]c2=O)C1F (stereo not shown) [Compound 61 (Series 2)]	–	–	–	–	–	EC50 (HBV [1]): > 10 µM; EC50 (HIV-1): 52.3 µM; IC50 (PBM cells): > 100 µM; IC50 (Vero cells): > 100 µM
CO[C@H]1C[C@H](n2cc(C)c(=O)[nH]c2=O)O[C@@H]1CO [3′-O-methylthymidine]	–	–	–	–	–	Activity against HIV (in words) (HIV): inactive; Inhibition of HIV reverse transcriptase (in words) [6]: exceptionally potent inhibitor
Nc1nc(=O)n(C2OC(CO)C(CO)C2F)cc1F (stereo not shown) [Compound 10 (Series 2)]	0.13	3.3	> 100	> 100	> 100	Inhibition of HBV replication (in words) (HBV [1]): potent inhibitors; Inhibition of HIV replication (in words) (HIV-1): potent inhibitors; IC50 at 10 day [5]: > 100 µM
O=c1[nH]c(=O)n([C@@H]2O[C@H](CO)[C@@H](O)[C@@H]2F)cc1I [Fialuridine]	–	–	–	–	–	Activity against HBV (in words) (HBV [7]): effectively inhibit replication; Activity against HIV (in words) (HIV): devoid of activity
Nc1ccn(C2OC(CO)C(CCO)C2F)c(=O)n1 (stereo not shown) [Compound 24 (Series 2)]	> 10	> 100	> 100	> 100	> 100	–
Nc1nc(=O)n([C@@H]2O[C@H](CO)[C@@H](O)[C@@H]2F)cc1I [Fiacitabine]	–	–	–	–	–	Activity against HBV (in words) (HBV [7]): effectively inhibit replication; Activity against HIV (in words) (HIV): devoid of activity
Cc1cn(C2CC(CO)C(CO)O2)c(=O)[nH]c1=O (stereo not shown) [Compound 20 (Series 1)]	–	–	> 100	> 100	> 100	EC50 (HBV [1]): 0.23 µM; Antiviral activity (in words) (HBV [1]): moderate activity; EC50 (HIV-1): 0.8 µM
CC1C(CO)OC(n2cc(F)c(N)nc2=O)C1F (stereo not shown) [Compound 21 (Series 2)]	> 10	> 100	> 100	> 100	> 100	–
O=c1ccn(C2OC(CO)C(CO)C2F)c(=O)[nH]1 (stereo not shown) [Compound 13 (Series 2)]	> 10	> 100	> 100	> 100	> 100	–
Cc1cn(C2OC(CO)C(CO)C2F)c(=O)[nH]c1=O (stereo not shown) [Compound 12 (Series 2)]	–	–	–	> 100	> 100	EC50 (HBV [1]): < 10 µM; Antiviral activity (in words) (HBV [1]): moderate activities; EC50 (HIV-1): > 100 µM; IC50 (PBM cells): > 100 µM
CN1OC(n2ccc(N)nc2=O)CC1CO (stereo not shown) [Compound 39 (Series 2)]	> 10	> 100	> 100	> 100	> 100	–
Cc1cn(C2OC(CO)C(C)C2F)c(=O)[nH]c1=O (stereo not shown) [Compound 22 (Series 2)]	> 10	> 100	> 100	> 100	> 100	–
